Key:
[1] = tested on: tracheo-bronchial mucus secretion; experiment: Red phenol secretion in BAL (mucus secretion); type: in vivo, Albino Swiss male mice
Experimental: (§1) The ability of a drug to modify the tracheo-bronchial mucus secretion is evaluated measuring the excretion of a dyestuff in the respiratory tree.
(§2) Albino Swiss male mice are used in this test and the animals are killed 30 minutes after dye treatment. The dye content in BAL's is evaluated spectrometrically at 546 nm.
An increased red phenol secretion in BAL's after drug treatment means stimulation of mucus production.

[2] = tested on: tracheo-bronchial mucus secretion; conditions: known effect of therapeutically active drugs; cited from earlier work
[3] = tested on: tracheo-bronchial mucus secretion; experiment: Uranine secretion in BAL (mucus secretion); type: in vivo, Albino Swiss female mice
Experimental: as §1
The animals are sacrified 30 minutes after; the respiratory tree is excised and accurately washed. The washing fluids (BAL) are collected and evaluated for the uranine content using a spectrofluorimetric technique.
as §2

[4] = tested on: tracheo-bronchial mucus secretion; experiment: Time-course of red phenol excretion (long-lasting action); type: in vivo, Albino Swiss male mice
Experimental: as §2
Infact, a substance can be administered 2, 1 and 1/2 hours before the intraperitoneal administration of the red phenol marker. If the animals are killed, as usual, half an hour after the dyestuff treatment, the overall time of drug action increases from 1 hr to 11/2 and 21/2 hrs respectively.

[5] = tested on: hyperreactive spasmus induced by acetylcholine challenge; experiment: Hyperreactive spasmus induced by acetylcholine challenge in anaesthetized guinea-pigs submitted to forced tobacco-smoking respiration; type: in vivo; conditions: for activity as reference substance in the acetylcholine challenge procedure: i.m. administration
[6] = 100 mg/kg os, overall experiment 1 1/2 hours
[7] = 100 mg/kg os, overall experiment 2 1/2 hours
[8] = 100 mg/kg os, overall experiment 1 hour

With `CN(Cc1cc(Br)cc(Br)c1N)C1CCCCC1` [Substance E, bromexine, reference compound] the “% increase of dyestuff secretion in BAL (vs. untreated animals), red phenol” value (from here on “% increase of dyestuff secretion … red phenol”) ([1]; 25 mg/kg os) was 28%, the “% increase of dyestuff secretion … red phenol” value ([1]; 50 mg/kg os) was 69% and the “% increase of dyestuff secretion … red phenol” value ([1]; 100 mg/kg os) was 83%. The “uranine content in the BAL's in respect to control values (in words)” value [2] was “increase the uranine content in the BAL's in a dose dependent way”, the “% increase of dyestuff secretion in BAL (vs. untreated animals), uranine” value (“% increase of dyestuff secretion … uranine” for short) ([3]; 25 mg/kg os) was 0% and the “% increase of dyestuff secretion … uranine” value ([3]; 50 mg/kg os) was 50%. For the same molecule, the “% increase of dyestuff secretion … uranine” value ([3]; 100 mg/kg os) was 63%, the “Time-course of % increase of red phenol excretion (vs. untreated animals)” value [4, 6] was 61% and the “Time-course of % increase of red phenol excretion (vs. untreated animals)” value [4, 7] was 21%. For the same molecule, the “Time-course of % increase of red phenol excretion (vs. untreated animals)” value [4, 8] was 98%.

In the case of `COc1ccccc1OCCSCC(=O)NCc1cccnc1` [Substance B, N-(3-pyridyl)methy 1-3-thia-5 (2-methoxy-phenoxy)pentanoic acid amide], the “% increase of dyestuff secretion … red phenol” value ([1]; 25 mg/kg os) was 12%, the “% increase of dyestuff secretion … red phenol” value ([1]; 50 mg/kg os) was 73% and the “% increase of dyestuff secretion … red phenol” value ([1]; 100 mg/kg os) was 126%. For the same molecule, the “% increase of dyestuff secretion … uranine” value ([3]; 25 mg/kg os) was 70%, the “% increase of dyestuff secretion … uranine” value ([3]; 50 mg/kg os) was 140% and the “% increase of dyestuff secretion … uranine” value ([3]; 100 mg/kg os) was 190%. For the same molecule, the “reduction of hyperreactive spasmus induced by acetylcholine challenge” value ([5]; e.v. treatment, 5 to 30 mg/kg, forced tobacco-smoking respiration) was “able to reduce the hyperreactive spasmus induced by acetylcholine challenge in dose dependent way”, the “Time-course of % increase of red phenol excretion (vs. untreated animals)” value [4, 6] was 119% and the “Time-course of % increase of red phenol excretion (vs. untreated animals)” value [4, 7] was 62%. The “Time-course of % increase of red phenol excretion (vs. untreated animals)” value [4, 8] was 126%.

For `C[C@H]1C[C@@H]2[C@H]([C@@H](O)C[C@@]3(C)[C@H]2CC[C@]3(O)C(=O)CO)[C@@]2(C)C=CC(=O)C=C12` [6-α-methylprednisolone], the “activity as reference substance in the acetylcholine challenge procedure” value [5] was “Positive”.

In the case of `COc1ccccc1OCC1COC(CSCC(=O)NCc2cccnc2)O1` (centres unmarked) [Substance D, N-(3-pyridyl)methyl-3-thia-4-[4-(2-methoxy-phenoxy)-methyl-(Z,E)-(1,3)-dioxolan-2-yl]-butanoic acid amide], the “% increase of dyestuff secretion … red phenol” value ([1]; 25 mg/kg os) was 49%, the “% increase of dyestuff secretion … red phenol” value ([1]; 50 mg/kg os) was 120% and the “% increase of dyestuff secretion … red phenol” value ([1]; 100 mg/kg os) was 179%. The “% increase of dyestuff secretion … uranine” value ([3]; 25 mg/kg os) was 66%, the “% increase of dyestuff secretion … uranine” value ([3]; 50 mg/kg os) was 132% and the “% increase of dyestuff secretion … uranine” value ([3]; 100 mg/kg os) was 284%. For the same molecule, the “Time-course of % increase of red phenol excretion (vs. untreated animals)” value [4, 6] was 111%, the “Time-course of % increase of red phenol excretion (vs. untreated animals)” value [4, 7] was 58% and the “Time-course of % increase of red phenol excretion (vs. untreated animals)” value [4, 8] was 179%.

In the case of `O=C(O)c1cc(=O)c2c(OCC(O)COc3cccc4oc(C(=O)O)cc(=O)c34)cccc2o1` [sodium dichromoglicate], the “activity as reference substance in the acetylcholine challenge procedure” value [5] was “Positive”.

In the case of `COc1ccccc1OCC1COC(CSCC(=O)O)O1` (centres unmarked) [Substance C, 3-thia-4-[4-(2-methoxy-phenoxy)methyl-(Z,E)-dioxolan-2-yl]-butanoic acid], the “% increase of dyestuff secretion … red phenol” value ([1]; 25 mg/kg os) was 47%, the “% increase of dyestuff secretion … red phenol” value ([1]; 50 mg/kg os) was 83% and the “% increase of dyestuff secretion … red phenol” value ([1]; 100 mg/kg os) was 143%. The “% increase of dyestuff secretion … uranine” value ([3]; 25 mg/kg os) was 25%, the “% increase of dyestuff secretion … uranine” value ([3]; 50 mg/kg os) was 52% and the “% increase of dyestuff secretion … uranine” value ([3]; 100 mg/kg os) was 101%. For the same molecule, the “Time-course of % increase of red phenol excretion (vs. untreated animals)” value [4, 6] was 72%, the “Time-course of % increase of red phenol excretion (vs. untreated animals)” value [4, 7] was 42% and the “Time-course of % increase of red phenol excretion (vs. untreated animals)” value [4, 8] was 143%.

In the case of `COc1ccccc1OCCSCC(=O)O` [Substance A, 3-thia-5-(2-methoxy-phenoxy)-pentanoic acid], the “% increase of dyestuff secretion … red phenol” value ([1]; 25 mg/kg os) was 25%, the “% increase of dyestuff secretion … red phenol” value ([1]; 50 mg/kg os) was 50% and the “% increase of dyestuff secretion … red phenol” value ([1]; 100 mg/kg os) was 104%. For the same molecule, the “% increase of dyestuff secretion … uranine” value ([3]; 25 mg/kg os) was 45%, the “% increase of dyestuff secretion … uranine” value ([3]; 50 mg/kg os) was 98% and the “% increase of dyestuff secretion … uranine” value ([3]; 100 mg/kg os) was 138%. The “Time-course of % increase of red phenol excretion (vs. untreated animals)” value [4, 6] was 98%, the “Time-course of % increase of red phenol excretion (vs. untreated animals)” value [4, 7] was 62% and the “Time-course of % increase of red phenol excretion (vs. untreated animals)” value [4, 8] was 104%.

For `CC1=CCC(C(C)(C)O)CC1O` (centres unmarked) [Substance F, sobrerol, reference compound], the “% increase of dyestuff secretion … red phenol” value ([1]; 50 mg/kg os) was 48%, the “% increase of dyestuff secretion … red phenol” value ([1]; 100 mg/kg os) was 69% and the “% increase of dyestuff secretion … red phenol” value ([1]; 200 mg/kg os) was 111%. For the same molecule, the “uranine content in the BAL's in respect to control values (in words)” value [2] was “increase the uranine content in the BAL's in a dose dependent way”, the “% increase of dyestuff secretion … uranine” value ([3]; 50 mg/kg os) was 54% and the “% increase of dyestuff secretion … uranine” value ([3]; 100 mg/kg os) was 104%. The “% increase of dyestuff secretion … uranine” value ([3]; 200 mg/kg os) was 144%, the “Time-course of % increase of red phenol excretion (vs. untreated animals)” value ([4]; 200 mg/kg os, overall experiment 1 1/2 hours) was 73% and the “Time-course of % increase of red phenol excretion (vs. untreated animals)” value ([4]; 200 mg/kg os, overall experiment 2 1/2 hours) was 30%. The “Time-course of % increase of red phenol excretion (vs. untreated animals)” value ([4]; 200 mg/kg os, overall experiment 1 hour) was 108%.

From patent publication US4968706A, “Ethers and thioethers having therapeutical activity, their preparation and pharmaceutical compositions containing them” (priority 1987, dated 1990)
